PubChem BioAssay (NCI)
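Following 48 hours of exposure in 96-well plates, responses at five concentrations were used to interpolate endpoints linearly. Definition used: TGI = concentration required for complete inhibition of growth.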

Columns and labels:
Experiment in all cases: growth of human tumour cells (NCI), 48 h
K-562 leukemia = tested on: K-562 leukemia
NCI-H522 lung = tested on: NCI-H522 lung
HCC-2998 colon = tested on: HCC-2998 colon
M14 melanoma = tested on: M14 melanoma
SNB-19 CNS = tested on: SNB-19 CNS
CCRF-CEM leukemia = tested on: CCRF-CEM leukemia
UO-31 renal = tested on: UO-31 renal
HCT-116 colon = tested on: HCT-116 colon
KM12 colon = tested on: KM12 colon
SF-539 CNS = tested on: SF-539 CNS
SNB-75 CNS = tested on: SNB-75 CNS
SN12C renal = tested on: SN12C renal
ACHN renal = tested on: ACHN renal
RPMI-8226 leukemia = tested on: RPMI-8226 leukemia

Row | SMILES | TGI (K-562 leukemia) | TGI (NCI-H522 lung) | TGI (HCC-2998 colon) | TGI (M14 melanoma) | TGI (SNB-19 CNS) | TGI (CCRF-CEM leukemia) | TGI (UO-31 renal) | TGI (HCT-116 colon) | TGI (KM12 colon) | TGI (SF-539 CNS) | TGI (SNB-75 CNS) | TGI (SN12C renal) | TGI (ACHN renal) | TGI (RPMI-8226 leukemia)
1 | Cc1ccc(-c2c3c(n(C4OC(CO)C(O)C(O)C4O)c(=S)c2C#N)CC(C)(C)CC3=O)cc1 (centres undefined) | > 100 µM | > 100 µM | > 100 µM | > 100 µM | > 100 µM | > 100 µM | > 100 µM | > 100 µM | > 100 µM | > 100 µM | > 100 µM | > 100 µM | > 100 µM | > 100 µM
2 | Cn1c(=O)c2c(no[n+]2[O-])c2ccccc21 | > 100 µM | 27.8 µM | 27.3 µM | 25.3 µM | 84.2 µM | 48.9 µM | 55 µM | 30.2 µM | 25.2 µM | > 100 µM | 35.9 µM | 59.8 µM | 83 µM | 62 µM
3 | CC(C)(C)c1cc(C(=O)/C=C/C=C/c2ccccc2)cc(C(C)(C)C)c1O | > 100 µM | 52.5 µM | 28.2 µM | 41.4 µM | 77.8 µM | 15.5 µM | > 77.3 µM | 44.9 µM | > 92.7 µM | 33.6 µM | 67.2 µM | 77.3 µM | > 100 µM | 29.9 µM
4 | O=C1NN=C2C=C(c3ccc(Cl)cc3)CC(c3cccc(Cl)c3)C12 (centres undefined) | 41.8 µM | 42.8 µM | 33.5 µM | > 100 µM | 36.1 µM | 71.7 µM | 66.4 µM | 41 µM | > 100 µM | 55.7 µM |  | 57.5 µM | 48.2 µM | 57 µM
5 | O=C(/C=C/C=C/c1ccccc1)c1ccc2c(c1)CCCC2 | > 100 µM | 37.7 µM | 63.3 µM | > 100 µM | > 100 µM | > 100 µM | > 100 µM | > 100 µM | > 100 µM | > 100 µM |  | > 100 µM | > 100 µM | > 100 µM
6 | CCOC(=O)NC1CN2CCC1CC2 (centres undefined) | > 100 µM | > 100 µM | > 100 µM | > 100 µM | > 100 µM | > 100 µM | > 100 µM | > 100 µM | > 100 µM | > 100 µM | > 100 µM | > 100 µM | > 100 µM | > 100 µM
7 | CC(C)=C1C(=O)C[C@]2(C)C[C@H]3/C(=C(/C)CCC12)CC[C@@]3(C)O (some centres undefined) | > 50 µM | > 50 µM | > 50 µM | > 50 µM | > 50 µM | > 50 µM | > 50 µM | > 50 µM | > 50 µM | > 50 µM | > 50 µM | > 50 µM | > 50 µM | > 50 µM
8 | Cc1ccc(NC(=S)NNC(=O)c2cc(-c3ccccc3)nc3ccccc23)cc1 | > 100 µM | 39 µM | 24.3 µM | 26.8 µM | 42.4 µM |  | 25.5 µM | 21.3 µM | 37.7 µM | 30.1 µM | 42.3 µM | 31.8 µM | 31.3 µM | 39.2 µM
9 | COc1ccc(OC)c(C2Cc3cnc4nc(N)nc(N)c4c3C2)c1 (centres undefined) | > 100 µM | 64.3 µM | 41.9 µM | > 100 µM | > 100 µM | > 100 µM | > 100 µM | 55.1 µM | 55.7 µM | 28 µM | 47.5 µM | 56.8 µM | > 100 µM | 94.7 µM
10 | CSc1nncc2[nH]c(C)nc12 | > 100 µM | > 100 µM | > 100 µM | > 100 µM |  | > 100 µM | > 100 µM | > 100 µM | > 100 µM | > 100 µM | > 100 µM | > 100 µM | > 100 µM | > 100 µM
11 | O=[N+]([O-])c1cc2c(c3nonc13)OCCCCO2 | 17.3 µM | 17.4 µM | 35.5 µM | 17.9 µM | 34.6 µM | 4.98 µM | 19.7 µM | 3.46 µM | 20.7 µM | 7.27 µM | 22.7 µM | 16.1 µM | 19.6 µM | 16.3 µM
12 | COc1ccc(CN(Cc2ccc(OC)cc2)C(=O)CC2(O)C=CCC2)cc1 (centres undefined) | > 100 µM | > 100 µM | > 100 µM | > 100 µM | > 100 µM | > 100 µM | > 100 µM | > 100 µM | > 100 µM | > 100 µM | > 100 µM | > 100 µM | > 100 µM | > 100 µM
13 | Cc1cc(C)nc(NS(=O)(=O)c2ccc(NNC(=O)c3cccc4c(=O)c5ccccc5[nH]c34)cc2)n1 | > 100 µM | > 100 µM | > 100 µM | > 100 µM | > 100 µM | > 100 µM | > 100 µM | > 100 µM | > 100 µM | > 100 µM | 77.7 µM | > 100 µM | > 100 µM | > 100 µM
14 | CSc1ncnc2c1cnn2CCCCO | > 100 µM | > 100 µM | > 100 µM | > 100 µM | > 100 µM | > 100 µM | > 100 µM | > 100 µM | > 100 µM | > 100 µM |  | > 100 µM | > 100 µM | > 100 µM
15 | Cc1ccc(C(=O)N/N=C(\N=Nc2ccccc2[N+](=O)[O-])c2ccc(N(C)C)cc2)cc1 | > 100 µM | > 100 µM | > 100 µM | > 100 µM | > 100 µM | > 100 µM | > 100 µM | > 100 µM | > 100 µM | > 100 µM |  | > 100 µM | > 100 µM | > 100 µM
16 | COc1ccc(OC)c(N2C(=O)CSC2c2cc(OC)c(OC)c(OC)c2)c1 (centres undefined) | > 100 µM | > 100 µM | > 100 µM | > 100 µM | > 100 µM | > 100 µM | > 100 µM | > 100 µM | > 100 µM | > 100 µM |  | > 100 µM | > 100 µM | > 100 µM
17 | COc1ccc(C(OC(C)=O)C2C(=C(C#N)C#N)c3ccccc3C2=C(C#N)C#N)cc1 (centres undefined) | > 100 µM | > 100 µM | 59.9 µM | > 100 µM |  | 62.6 µM | 75.1 µM | > 100 µM | > 100 µM | 49.7 µM | > 100 µM |  | > 100 µM | 60.4 µM
